Assays:
Platelet [1] = assay: Antiplatelet activity in rabbit platelet rich plasma assessed as inhibition of ADP-induced platelet aggregation at 0.1 mM preincubated for 5 mins followed by ADP addition measured up to 5 mins; format: functional; settings: Oryctolagus cuniculus
Platelet [2] = assay: Antiplatelet activity in rabbit platelet rich plasma assessed as inhibition of ADP-induced platelet aggregation at 0.1 mM preincubated for 5 mins followed by ADP addition measured up to 5 mins in presence of NO scavenger carboxy-PTIO; format: functional; settings: Oryctolagus cuniculus
Mus musculus [3] = assay: Antidiabetic activity in ICR mouse assessed as increase in urinary glucose excretion by measuring urine glucose levels at 20 mg/kg, po administered 30 mins prior to glucose challenge measured after 120 mins; format: functional
Mus musculus [4] = assay: Antidiabetic activity in ICR mouse assessed as increase in urinary glucose excretion by measuring urine glucose levels at 20 mg/kg, po administered 30 mins prior to glucose challenge measured after 60 mins; format: functional
Mus musculus [5] = assay: Antihyperglycemic activity in fasting ICR mouse assessed as decrease in plasma glucose AUC (0 to 120 mins) at 20 mg/kg, po administered 30 mins prior to glucose challenge measured after 120 mins by OGTT relative to control; format: functional; design: scale not given: the % may be the effect or the level left
Mus musculus [6] = assay: Antidiabetic activity in ICR mouse assessed as increase in urinary glucose excretion by measuring urine glucose levels at 20 mg/kg, po administered 30 mins prior to glucose challenge measured after 30 mins; format: functional
Mus musculus [7] = assay: Antidiabetic activity in ICR mouse assessed as increase in urinary glucose excretion by measuring urine glucose levels at 20 mg/kg, po administered 30 mins prior to glucose challenge measured after 15 mins; format: functional
[8] = target: T1, Sodium/glucose cotransporter 2 (Homo sapiens, UniProt P31639); assay: Inhibition of SGLT2 (unknown origin)
T1 sequence (P31639 whole entry): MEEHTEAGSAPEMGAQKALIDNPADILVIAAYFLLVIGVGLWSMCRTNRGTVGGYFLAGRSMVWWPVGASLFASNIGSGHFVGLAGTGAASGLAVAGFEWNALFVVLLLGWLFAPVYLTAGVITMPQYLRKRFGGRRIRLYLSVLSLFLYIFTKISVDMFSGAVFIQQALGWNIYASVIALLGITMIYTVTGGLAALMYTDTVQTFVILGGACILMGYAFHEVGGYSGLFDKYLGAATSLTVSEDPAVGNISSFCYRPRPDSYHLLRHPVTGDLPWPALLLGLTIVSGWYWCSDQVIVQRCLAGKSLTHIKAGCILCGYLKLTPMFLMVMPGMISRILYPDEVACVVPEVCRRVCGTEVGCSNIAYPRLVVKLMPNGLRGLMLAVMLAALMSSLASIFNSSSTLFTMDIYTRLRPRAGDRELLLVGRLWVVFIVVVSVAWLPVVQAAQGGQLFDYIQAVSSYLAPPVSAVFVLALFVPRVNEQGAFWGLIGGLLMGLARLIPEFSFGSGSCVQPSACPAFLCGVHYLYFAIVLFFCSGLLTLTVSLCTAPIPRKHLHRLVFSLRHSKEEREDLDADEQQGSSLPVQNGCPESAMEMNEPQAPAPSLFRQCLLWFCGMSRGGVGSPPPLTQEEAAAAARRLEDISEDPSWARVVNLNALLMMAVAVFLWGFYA

Row | Structure (SMILES) | inhibition at 100 µM (Platelet [1]) [%] | IC50 [8] [nM] | further results
1 | O=[N+]([O-])OCCOc1ccc(Cc2cc([C@@H]3O[C@H](CO)[C@@H](O)[C@H](O)[C@H]3O)ccc2Cl)cc1 | 11.6 | – | –
2 | O=[N+]([O-])OCCCOc1ccc(Cc2cc([C@@H]3O[C@H](CO)[C@@H](O)[C@H](O)[C@H]3O)ccc2Cl)cc1 | 14.4 | – | inhibition at 100 µM (Platelet [2]): 3.64%; Activity (Mus musculus [3]): 500 mg/dL; Activity (Mus musculus [4]): 1000 mg/dL; Activity (Mus musculus [5]): 26.3%; Activity (Mus musculus [6]): 2000 mg/dL; Activity (Mus musculus [7]): 500 mg/dL
3 | O=[N+]([O-])OCCCCOc1ccc(Cc2cc([C@@H]3O[C@H](CO)[C@@H](O)[C@H](O)[C@H]3O)ccc2Cl)cc1 | 14.1 | – | –
4 | OC[C@H]1O[C@@H](c2ccc(F)c(Cc3cc4ccccc4s3)c2)[C@H](O)[C@@H](O)[C@@H]1O [IPRAGLIFLOZIN] | – | 8.4 | –
5 | CCOc1ccc(Cc2cc([C@@H]3S[C@H](CO)[C@@H](O)[C@H](O)[C@H]3O)c(OC)cc2C)cc1 [LUSEOGLIFLOZIN] | – | 2.3 | –
6 | CCc1ccc(Cc2ccc3c(c2)[C@]2(OC3)O[C@H](CO)[C@@H](O)[C@H](O)[C@H]2O)cc1 [TOFOGLIFLOZIN ANHYDROUS] | – | 4 | –
